In general, T/C refers to the result in the treated group divided by that in the control group, in per cent.

Data set [1] deals with Human non-small cell lung cancer cells LU99. Kind of data set: Cell survival rate of LU99 cells under drug combination, Cell Titer-Glo. Type of data set: cell-based. The note with it: 120 h. How it is done: (§1) The cell survival rate (%) after the drug combinations was calculated by the formula: cell survival rate=(1−(RLU of DMSO control−RLU of treatment)/(RLU of DMSO control−RLU of blank control))×100%. The DMSO control was a vehicle control with no drugs, and the blank control was a medium control with no drugs and vehicles.
(§2) The value corresponding to the coordinates is the cell survival rate of the combination groups with corresponding concentrations of the two drugs.
(§3) The effect of the drug combinations on the tumor cells was evaluated by statistical methods. The statistical software used was R systems, and the statistical models were Bliss, HSA, Loewe, and ZIP. A synergic value>5 indicates a synergic effect, a synergic value>10 indicates a significant synergic effect, a synergic value<−5 indicates an antagonistic effect, and a synergic value<−10 indicates a significant antagonistic effect. The final efficacy of the drug combinations was further judged by the synergic value.
(§4) Human non-small cell lung cancer cells LU99 were plated into a 384-well plate at 600 cells/well. […] After 120 h, the cell viability was measured by Cell Titer-Glo method. The Cell Titer-Glo reagent was added at 30 μL/well. The plate was shaken for 2 min and left to stand for 10 min. The RLU value was read on the Envision system.
as §4
In general terms: In ATP-based viability assays light output follows the ATP content of the culture.

Data set [2] relates to Human rectal adenocarcinoma cells SW837. The experiment in a line: Cell survival rate of SW837 cells under drug combination, Cell Titer-Glo. Type of data set: cell-based. The note with it: 120 h. How it is done:
as §1, §2, §3
(§5) Human rectal adenocarcinoma cells SW837 were plated into a 384-well plate at 800 cells/well. […] After 120 h, the cell viability was measured by Cell Titer-Glo method. The Cell Titer-Glo reagent was added at 30 μL/well. The plate was shaken for 2 min and left to stand for 10 min. The RLU value was read on the Envision system.
as §5

For data set [3], the system named is NCI-H2122 human non-small cell lung cancer model. Kind of data set: In vivo anti-tumor evaluation in NCI-H2122 human non-small cell lung cancer model. Also noted: species or system BALB/c nude mice. The method, then:
During the study, the health of the animals was observed daily. If there was a 10% weight loss in the animals, the administration dose was halved; if there was a 15% weight loss, the […] until a normal body weight was restored; or if the tumor volume in the animals exceeded 2,000 mm^3, the mouse was euthanized immediately. If the health condition met the following criteria, euthanasia was performed by the veterinarian:
BALB/c nude mice, aged 6-8 weeks, female, purchased from Beijing Vital River Laboratory Animal Technology Co., Ltd., Certificate No. 20170011008676, and housed in an SPF-grade environment.
NCI-H2122 cells were cultured in an RPMI 1640 medium containing 10% of FBS and 1% of penicillin-streptomycin in an incubator at 37° C. and 5% CO2. […] When the cells were in the logarithmic growth phase and the confluence reached […], the cells were collected and counted. The cells were collected and adjusted to a final concentration of 2.0×10^6 cells/mL. Mice were grafted subcutaneously at the right dorsal region in a volume of 0.15 mL/3×10^5 cells/mouse. When the tumors grew to an average size of about 242 mm^3 (D5 after grafting), 32 tumor-bearing mice were selected, randomized into 4 groups of 8 mice each as per the tumor volume and the body weight, and treated according to the administration regimen shown in Table 1. The dose in mice was 10 mL/kg. The mice were weighed on an electronic balance twice weekly and the tumor volume was measured with a vernier caliper twice weekly. The study was ended on D17 after grafting, and the mice were euthanized after tumor volume measurement.
Tumor volume (TV)=(L×W^2)/2, where L denotes the long diameter of the tumor, and W is the short diameter of the tumor.
TWI=(1−TWtreatment/Dx/TWcontrol/Dx)×100%, where TWcontrol denotes the average tumor weight (g) of the control group, and TWtreatment denotes the average tumor weight (g) of the treatment group.
RCBW (%)=(BWi−BW0)/BW0×100%, where BWi is the body weight of a mouse on a specific day and BW0 is the body weight of the mouse at the baseline.
All experimental data analysis and graphing were performed using GraphPad Prism software (GraphPad Software). Tumor volumes and the body weights of the animals in all groups were statistically compared using two-way ANOVA, Dunnett's multiple comparisons test. Tumor weights of the groups at the endpoint were statistically compared using one-way ANOVA, Dunnett's multiple comparisons test. P<0.05 denotes a statistically significant difference. The tumor volume and weight and body weight of animals are expressed by mean±standard error (SEM).

Data set [4] relates to mouse colon cancer CT26 KRAS G12C KI cell subcutaneous graft tumor model. Kind of data set: In vivo anti-tumor evaluation in mouse CT26 KRASG12C KI subcutaneous graft tumor model. How it is done:
The animals and the main evaluation indexes were the same as those of Example 8.
Preparation: the compound of the formula (II) was prepared in a vehicle of 5% DMSO+10% Solutol HS 15+85% (6% HP—β-CD); mPD1 was prepared in PBS.
On day 12 after cell inoculation (DO), the grouping and treatment were started after the mean tumor volume reached 69 mm^3. 32 tumor-bearing mice were selected, randomized into 4 groups of 8 mice each as per the tumor volume and the body weight, and treated according to the administration regimen shown in Table 3. The administration volume in mice was 10 mL/kg. The mice were weighed on an electronic balance twice weekly and the tumor volume was measured with a vernier caliper twice weekly.
The main evaluation indexes were tumor volume, TGI, TWI, and RCBW.

Data set [5] deals with Human non-small cell lung cancer cells NCI-H2122. Kind of data set: Cell survival rate of NCI-H2122 cells under drug combination, Cell Titer-Glo. Type of data set: cell-based. To be noted: 120 h. The method, then: as §1
The value corresponding to the coordinates is the cell survival rate of the combination groups with corresponding concentrations of the two drugs. For example, in FIG. 1, when the horizontal coordinate read is 0 nM and the vertical coordinate read is 10.03 nM, the value corresponding to the coordinates is 86.1.
as §3
Human non-small cell lung cancer cells NCI-H2122 were plated into a 384-well plate at 600 cells/well. […] After 120 h, the cell viability was measured by Cell Titer-Glo method. […] The RLU value was read on the Envision system.

For data set [6], the system named is Human non-small cell lung cancer cells SW1573. The experiment in a line: Cell survival rate of SW1573 cells under drug combination, Cell Titer-Glo. The note with it: 120 h. Type of data set: cell-based. The method, then: as §1, §2, §3
(§6) After 120 h, the cell viability was measured by Cell Titer-Glo method. The Cell Titer-Glo reagent was added at 30 μL/well. The plate was shaken for 2 min and left to stand for 10 min. The RLU value was read on the Envision system.

Data set [7] relates to Human rectal adenocarcinoma cells SW1463. The experiment in a line: Cell survival rate of SW1463 cells under drug combination, Cell Titer-Glo. Type of data set: cell-based. The note with it: 120 h. How it is done: as §1, §2, §3, §6
[8] abbreviates: Day 17, compound of formula (II) 10 mpk p.o. q.d., cetuximab 1 mpk i.p. biw.
Setting [9] is: after 12 days treatment, mean ± SEM, compound of formula (II) 10 mpk p.o. q.d., cetuximab 1 mpk i.p. biw.
Where [10] appears, read: Day 33, compound of formula (II) 3 mpk (D 0-9) & 1 mpk (D 10-20) p.o. q.d., mPD1 10 mpk i.p. biw.
The mark [11] stands for this setting: after 21 days treatment, compound of formula (II) 3 mpk (D 0-9) & 1 mpk (D 10-20) p.o. q.d., mPD1 10 mpk i.p. biw.

Marks after values point to notes of the source that are not given here.

With `Cc1nc(NC(=O)N2CCC[C@H]2C(N)=O)sc1-c1ccnc(C(C)(C)C(F)(F)F)c1` [BYL719, Alpelisib, reference compound], the cell survival rate in data set [1] (LU99, Example 1, 1000 nM BYL719 alone) is listed as 62.6%; in data set [2] (SW837, Example 2, 10000 nM BYL719 alone), 62.9%.
With `C=CC(=O)N1CCN2c3c(c(=O)n(-c4c(C)ccnc4C(C)C)c4nc(-c5c(O)cccc5F)c(Cl)cc34)N(C)C(=O)[C@H]2C1` [Compound of formula (II), (4aR,8R)-3-acryloyl-11-chloro-10-(2-fluoro-6-hydroxyphenyl)-8-(2-isopropyl-4-methylpyridin-3-yl)-6-methyl-2,3,4,4a,6,8-hexahydro-1H-pyrazino[1′,2′: 4,5] pyrazino[2,3-c][1,8]naphthyridine-5,7-dione], the cell survival rate in data set [1] (LU99, Example 1, 100 nM compound of formula (II) alone) is listed as 83%; in data set [1] (LU99, Example 3, 100 nM compound of formula (II) alone) it was 83.8%; in data set [1] (LU99, FIG. 1, coordinates 0 nM / 10.03 nM, stated as compound of formula (II) alone (BYL719 0 nM)), 86.1%; in data set [2] (SW837, Example 2, 31.69 nM compound of formula (II) alone), 60.2%; in data set [2] (SW837, Example 4, 31.69 nM compound of formula (II) alone) it was 56.2%; in data set [5] (NCI-H2122, Example 7, 3.17 nM compound of formula (II) alone) it was 60.7%. Also, the cell survival rate in data set [6] (SW1573, Example 6, 100 nM compound of formula (II) alone) is on record as 86.4%; in data set [7] (SW1463, Example 5, 31.69 nM compound of formula (II) alone), 43.2%. The TGI in data set [3] (setting [8]) was 73.81%; in data set [4] (setting [10]), 46.74%. Besides, the TWI in data set [3] (setting [8]) was found to be 49.37%; in data set [4] (setting [10]), 35.38%. Also, the “Body weight After grafting Day 17” value in data set [3] (setting [9]) was determined as 20.97 ± 0.38 g. For the same compound, the “Tumor volume After grafting Day17” value in data set [3] (setting [9]) is 479.14 ± 58.84*** mm^3. In addition, the “Body weight After grafting Day 5” value in data set [3] (baseline, mean ± SEM) is 21.16 ± 0.47 g. Further, the “Tumor weight After grafting Day 17” value in data set [3] (endpoint, mean ± SEM, compound of formula (II) 10 mpk p.o. q.d., cetuximab 1 mpk i.p. biw) is 0.30 ± 0.04 g. In addition, in data set [4] (CT26 KRAS G12C KI subcutaneous graft tumor model), the “tumor inhibitory effect (in words)” value was “mild tumor inhibitory effects”. Besides, the “Body weight After grafting Day 33” value in data set [4] (setting [11]) is 22.76 ± 0.37 g. Further, the “Tumor volume Day 33 after grafting” value in data set [4] (setting [11]) is on record as 1065.38 ± 251.12 mm^3; in data set [4] (after 21 days treatment, compound of formula (II) 3 mpk (D 0-9) & 1 mpk (D 10-20) p.o. q.d., mPD1 10 mpk i.p. biw, listed as compound of formula (II)), 1,065 mm^3. The “Tumor volume After grafting Day 12” value in data set [4] (baseline at grouping (D0), mean ± SEM, n=8) is recorded as 68.75 ± 6.65 mm^3. The “Body weight Day 12 after grafting” value in data set [4] (baseline, mean ± SEM) is 21.29 ± 0.29 g. Moreover, the “Tumor weight After grafting Day 33” value in data set [4] (endpoint, compound of formula (II) 3 mpk (D 0-9) & 1 mpk (D 10-20) p.o. q.d., mPD1 10 mpk i.p. biw) is listed as 1.84 ± 1.12 g. The same compound showed a T/C in data set [4] (mean tumor volume at end of study, compound of formula (II) 3 mpk (D 0-9) & 1 mpk (D 10-20) p.o. q.d., mPD1 10 mpk i.p. biw) of 54.92%.
`CS(=O)(=O)N1CCN(Cc2cc3nc(-c4cccc5[nH]ncc45)nc(N4CCOCC4)c3s2)CC1` [GDC0941, Pictilisib, reference compound]: the cell survival rate in data set [1] (LU99, Example 3, 100 nM GDC0941 alone) is listed as 85.4%; in data set [2] (SW837, Example 4, 1000 nM GDC0941 alone), 67.6%; in data set [6] (SW1573, Example 6, 3164 nM GDC0941 alone), 46%; in data set [7] (SW1463, Example 5, 1000 nM GDC0941 alone), 64.6%.
Consider `CC1(C)CC[C@H](Nc2ncc(C(F)(F)F)c(-c3c[nH]c4c(P(C)(C)=O)c(C#N)ccc34)n2)CN1` [SY-5609, reference compound], for which, in data set [5] (NCI-H2122, Example 7, 31.69 nM SY-5609 alone), the cell survival rate is on record as 57.5%.

The values above are taken from patent publication US20250221989A1, “PHARMACEUTICAL COMPOSITION, USE THEREOF, AND METHOD FOR TREATING CANCER” (Genfleet Therapeutics (Shanghai) Inc., priority 2022, published 2025).
